Data from ChEMBL document CHEMBL1153042, “Fatty acid amide hydrolase inhibitors. Surprising selectivity of chiral azetidine ureas” (Bioorg Med Chem Lett, 2009).
pIC50, pKi: −log10 of the molar value.

Experiments:
[1] = biological target: T1, Fatty-acid amide hydrolase 1 (Homo sapiens, UniProt O00519); assay: Inhibition of human FAAH incubated 1 hr prior to addition of arachidonyl-amino-methyl-coumarin amide
T1 sequence (O00519 whole entry): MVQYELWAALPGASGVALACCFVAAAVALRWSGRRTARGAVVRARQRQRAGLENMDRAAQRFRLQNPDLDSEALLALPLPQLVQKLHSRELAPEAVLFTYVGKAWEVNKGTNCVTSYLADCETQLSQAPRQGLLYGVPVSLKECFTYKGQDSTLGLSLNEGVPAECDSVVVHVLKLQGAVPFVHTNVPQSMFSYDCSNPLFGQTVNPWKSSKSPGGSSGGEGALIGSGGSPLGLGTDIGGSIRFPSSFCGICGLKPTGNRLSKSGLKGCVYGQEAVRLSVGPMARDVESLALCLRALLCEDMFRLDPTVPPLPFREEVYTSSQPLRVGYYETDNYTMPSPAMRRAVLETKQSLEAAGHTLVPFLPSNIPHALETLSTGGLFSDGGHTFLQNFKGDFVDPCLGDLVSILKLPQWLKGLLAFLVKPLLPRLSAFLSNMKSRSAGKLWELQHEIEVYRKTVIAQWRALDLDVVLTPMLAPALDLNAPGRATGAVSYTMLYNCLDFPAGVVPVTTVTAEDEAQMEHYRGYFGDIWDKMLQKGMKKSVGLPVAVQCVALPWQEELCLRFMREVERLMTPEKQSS

[2] = biological target: T1, Fatty-acid amide hydrolase 1; assay: Inhibition of human FAAH incubated 3 hrs prior to addition of arachidonyl-amino-methyl-coumarin amide
[3] = biological target: T2, Fatty-acid amide hydrolase 1 (Rattus norvegicus, UniProt P97612); assay: Inhibition of rat FAAH incubated 1 hr prior to addition of arachidonyl-amino-methyl-coumarin amide
T2 sequence (P97612 whole entry): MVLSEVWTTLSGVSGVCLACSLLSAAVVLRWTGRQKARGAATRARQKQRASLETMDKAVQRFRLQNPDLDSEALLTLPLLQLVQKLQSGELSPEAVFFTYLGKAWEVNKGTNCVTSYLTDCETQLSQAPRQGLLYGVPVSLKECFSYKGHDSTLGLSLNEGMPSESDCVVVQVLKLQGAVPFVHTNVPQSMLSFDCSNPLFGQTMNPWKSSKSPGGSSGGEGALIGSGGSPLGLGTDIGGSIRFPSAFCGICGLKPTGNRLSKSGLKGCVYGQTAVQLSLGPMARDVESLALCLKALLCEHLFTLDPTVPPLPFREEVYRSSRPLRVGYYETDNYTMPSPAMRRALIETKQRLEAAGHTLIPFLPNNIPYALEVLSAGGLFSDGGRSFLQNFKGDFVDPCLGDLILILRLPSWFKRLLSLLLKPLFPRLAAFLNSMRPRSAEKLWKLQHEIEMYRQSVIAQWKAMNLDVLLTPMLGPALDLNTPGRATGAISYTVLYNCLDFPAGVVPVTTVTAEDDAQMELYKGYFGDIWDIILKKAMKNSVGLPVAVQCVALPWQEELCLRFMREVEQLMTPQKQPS

[4] = biological target: T2, Fatty-acid amide hydrolase 1; assay: Inhibition of rat FAAH incubated 3 hrs prior to addition of arachidonyl-amino-methyl-coumarin amide
[5] = biological target: Cannabinoid receptor 1 (Homo sapiens, UniProt P21554); assay: Displacement of [3H]SR141716A from human CB1 receptor
Chain of Cannabinoid receptor 1 (P21554 whole entry): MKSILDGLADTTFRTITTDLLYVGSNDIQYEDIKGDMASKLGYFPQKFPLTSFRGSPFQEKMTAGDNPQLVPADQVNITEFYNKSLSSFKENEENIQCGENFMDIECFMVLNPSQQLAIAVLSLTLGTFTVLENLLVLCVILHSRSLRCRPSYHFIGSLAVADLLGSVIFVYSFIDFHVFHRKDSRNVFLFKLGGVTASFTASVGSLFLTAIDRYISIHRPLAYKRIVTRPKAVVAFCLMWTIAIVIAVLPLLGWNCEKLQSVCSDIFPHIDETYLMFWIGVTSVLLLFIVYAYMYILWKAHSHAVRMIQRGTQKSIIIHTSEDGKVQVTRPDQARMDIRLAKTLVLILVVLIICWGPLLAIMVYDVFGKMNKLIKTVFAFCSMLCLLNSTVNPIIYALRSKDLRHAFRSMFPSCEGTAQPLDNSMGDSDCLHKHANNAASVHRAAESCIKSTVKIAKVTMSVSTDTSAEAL

[6] = biological target: Cannabinoid receptor 2 (Homo sapiens, UniProt P34972); assay: Displacement of [3H]CP-55940 from human CB2 receptor
Chain of Cannabinoid receptor 2 (P34972 whole entry): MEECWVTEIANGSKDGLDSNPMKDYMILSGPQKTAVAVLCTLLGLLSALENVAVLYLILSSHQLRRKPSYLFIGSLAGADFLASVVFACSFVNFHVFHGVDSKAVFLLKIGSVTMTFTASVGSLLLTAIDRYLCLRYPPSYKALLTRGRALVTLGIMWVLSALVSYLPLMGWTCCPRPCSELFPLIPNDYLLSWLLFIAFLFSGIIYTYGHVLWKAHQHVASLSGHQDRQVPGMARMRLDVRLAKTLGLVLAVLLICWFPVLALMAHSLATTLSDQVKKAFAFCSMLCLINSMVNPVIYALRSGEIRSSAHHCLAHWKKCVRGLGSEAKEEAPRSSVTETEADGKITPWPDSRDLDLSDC

Row | pIC50 [1] | pIC50 [2] | pIC50 [3] | pIC50 [4] | pKi [5] | pKi [6] | Compound
1 | < 5.00 | < 5.00 | < 5.00 | < 5.00 | > 8.00 | 4.96 | O=C(N1CCCCC1)N1CC(O[C@H](c2ccc(Cl)cc2)c2cccnc2Cl)C1
2 | 6.85 | 7.11 | 5.99 | 6.27 | 6.25 | 5.14 | O=C(N1CCCCC1)N1CC(O[C@@H](c2ccc(Cl)cc2)c2cccnc2Cl)C1
3 | 6.54 | 6.73 | – | – | > 8.00 | – | O=C(N1CCCCC1)N1CC(OC(c2ccc(Cl)cc2)c2cccnc2Cl)C1 (racemic)
